Data on 12 compounds can be found in ChEMBL document CHEMBL1201862, “PubChem BioAssay data set” (2004).

Holding throughout (assay): growth of human tumour cells (NCI), 48 h
Experiment [1] deals with 786-0.
Experiment [2] concerns LOX IMVI.
Experiment [3] has as its system DU-145.
Experiment [4] deals with NCI-H226.
Experiment [5] concerns ACHN.
For experiment [6], the system named is M14.
The subject of experiment [7] is MDA-MB-231.
Experiment [8] concerns NCI-H522.
Experiment [9] has as its system RPMI-8226.
The test system of experiment [10] is SK-MEL-28.
The subject of experiment [11] is EKVX.
Experiment [12] relates to UO-31.
Experiment [13] has as its system OVCAR-3.
For experiment [14], the system named is HT-29.
In experiment [15] the test system is OVCAR-4.
Experiment [16] has as its system SK-OV-3.
The subject of experiment [17] is Hs-578T.
Experiment [18] relates to U-251.
Experiment [19] relates to KM12.
Experiment [20] deals with MDA-N.

“And” between values parts separate entries of the source, which are not always exact repeats. Identical values can stand only once.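 Grown in 96-well plates, cells were treated for 48 hours with each compound at five concentrations. Insufficient inhibition: endpoint recorded as highest concentration tested. GI50: concentration for 50% inhibition of growth.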 The source made the active and inactive calls. Rule as the data show it: active = GI50 up to about 1.1 µM and inactive = higher.

Regarding `COc1ccc(N2C(=O)CC(Cl)C2=O)cc1` (centres undefined), the GI50 was 17.7 µM (inactive) in experiment [1]; 23.3 µM (inactive) in [2]; 94.6 µM (inactive) in [3]; 20.5 µM (inactive) in experiment [4]; 17.9 µM (inactive) in experiment [5]; > 100 µM (inactive) in experiment [6]. Also, the GI50 is 17.4 µM (inactive) in [7]; 17.5 µM (inactive) in [8]; 13.5 µM (inactive) in experiment [9]; 16.6 µM (inactive) in experiment [10]; > 100 µM (inactive) in experiment [11]; 18.7 µM (inactive) in [12]. Besides, the GI50 in [13] was 15.2 µM (inactive); in experiment [14], 17.8 µM (inactive); in experiment [15], 19.1 µM (inactive); in [16] it was > 100 µM (inactive); in experiment [17], > 100 µM (inactive); in experiment [18], > 100 µM (inactive).

Consider `CC[n+]1c(/C=C/c2ccc(N(CCCl)CCCl)cc2)ccc2cc(I)ccc21`, for which the GI50 in experiment [1] was 1.24 µM (inactive); in experiment [2] it was 0.766 µM (active); in experiment [4], 1.24 µM (inactive); in experiment [5], 2.71 µM (inactive); in experiment [6] it was 1.21 µM (inactive); in experiment [19], 1.08 µM (active). The GI50 was 0.312 µM (active) in experiment [8]; 0.601 µM (active) in experiment [9]; 0.912 µM (active) in experiment [10]; 2.74 µM (inactive) in experiment [11]; 5.93 µM (inactive) in experiment [12]; 0.553 µM (active) in experiment [13]. The GI50 in experiment [14] is 1.84 µM (inactive); in experiment [15] it was 0.608 µM (active); in [16], 1.31 µM (inactive); in [18], 0.67 µM (active).

As for `COC(=O)CSc1nc2[nH]c(SC)c(C(N)=O)c2c(=O)n1-c1ccccc1`, the GI50 in [1], in [2], in experiment [3], in [6], in experiment [20] and in experiment [19] was > 10 µM (inactive) each time. Moreover, the GI50 in [7], in experiment [9], in experiment [10], in [11], in experiment [14] and in [15] was > 10 µM (inactive) in each case. Also, the GI50 in experiment [16] was > 10 µM (inactive).

Take `COc1ccc2c(n1)Sc1nc3ccccc3nc1N2`: the GI50 in experiment [1] was 26.8 µM (inactive); in experiment [2], 31.4 µM (inactive); in experiment [3] it was > 100 µM (inactive); in experiment [4], 10.7 µM (inactive); in experiment [5], 23.2 µM (inactive); in [6], > 100 µM (inactive). Also, the GI50 in [19] was 55.7 µM (inactive); in [7], 13.2 µM (inactive); in experiment [8], 78 µM (inactive); in [9] it was > 100 µM (inactive); in [10], > 100 µM (inactive); in experiment [11], 12.6 µM (inactive). Moreover, the GI50 was 20 µM (inactive) in [12]; 32.4 µM (inactive) in [13]; 85.7 µM (inactive) in [14]; 67.3 µM (inactive) in [15]; 37.2 µM (inactive) in experiment [16]; 27.9 µM (inactive) in experiment [17]. Besides, the GI50 in experiment [18] is 19.4 µM (inactive).

With `CCN(CC)CCNC(=O)c1nn(C)c(=S)[nH]c1=S`, the GI50 in experiment [1], in experiment [2], in [4], in experiment [5], in experiment [6] and in experiment [19] was > 100 µM (inactive) in each case. The GI50 in experiment [8], in [9], in [10], in experiment [11], in experiment [12] and in [13] was > 100 µM (inactive) each time. Besides, the GI50 in experiment [14], in [15], in [16] and in experiment [18] was > 100 µM (inactive) each time.

In the case of `Cc1ccc(S(=O)(=O)N/N=C/c2oc(-c3cccc([N+](=O)[O-])c3)c(-c3cccc([N+](=O)[O-])c3)c2[N+](=O)[O-])cc1`, the GI50 in experiment [1] is 60.7 µM (inactive); in experiment [2] it was 16.7 µM (inactive); in experiment [3], > 100 µM (inactive); in experiment [4] it was > 100 µM (inactive); in experiment [5], 45.8 µM (inactive); in [6], 51.2 µM (inactive). In addition, the GI50 in [19] was 36 µM (inactive); in experiment [8], 15.1 µM (inactive); in experiment [9], 24 µM (inactive); in [10], 51.6 µM (inactive); in experiment [11], > 100 µM (inactive); in [12], 16.3 µM (inactive). The GI50 in [13] is > 100 µM (inactive); in experiment [14], > 100 µM (inactive); in experiment [15], > 100 µM (inactive); in [16], 23.4 µM (inactive); in [18], 66.5 µM (inactive).

For the compound `COc1cc(CC(=O)O)c([N+](=O)[O-])cc1OC`, the GI50 in experiment [1], in experiment [2], in experiment [4], in [5], in experiment [6] and in experiment [19] was > 100 µM (inactive) each time. Moreover, the GI50 in experiment [8], in [9], in experiment [10], in [11], in [12] and in experiment [13] was > 100 µM (inactive) throughout. Further, the GI50 in experiment [14], in experiment [15], in experiment [16] and in [18] was > 100 µM (inactive) each time.

Take `CC(O)C1OC(n2ccc(=O)[nH]c2=O)CC1n1cncn1` (centres undefined): the GI50 in [1] is > 100 µM (inactive); in [2], > 100 µM (inactive); in experiment [4] it was 11.8 µM (inactive); in experiment [5] it was > 100 µM (inactive); in experiment [6], > 100 µM (inactive); in experiment [19], > 100 µM (inactive). In addition, the GI50 in experiment [8] was > 100 µM (inactive); in experiment [9], > 100 µM (inactive); in experiment [10] it was > 100 µM (inactive); in experiment [11] it was > 100 µM (inactive); in [12] it was > 100 µM (inactive) and 98.9 µM (inactive); in [13] it was > 100 µM (inactive). The GI50 in [14], in experiment [15], in experiment [16] and in experiment [18] was > 100 µM (inactive) each time.

Regarding `CCCc1c(C(=O)OCC)[nH]c(-c2ccc(-c3[nH]c(C(=O)OCC)c(CCC)c3C(=O)OCC)s2)c1C(=O)OCC`, the GI50 is 21.8 µM (inactive) in experiment [1]; 18.1 µM (inactive) in experiment [2]; 72.1 µM (inactive) in experiment [4]; 34.8 µM (inactive) in experiment [5]; 49.8 µM (inactive) in experiment [6]; 22.1 µM (inactive) in [19]. For the same compound, the GI50 is 32.6 µM (inactive) in [8]; 87.7 µM (inactive) in [9]; 95.5 µM (inactive) in experiment [10]; 62.4 µM (inactive) in experiment [11]; 8.97 µM (inactive) in experiment [12]; 31.6 µM (inactive) in [13]. For the same compound, the GI50 was 38.8 µM (inactive) in experiment [14], 18.4 µM (inactive) in experiment [15], 27.1 µM (inactive) in [16] and 36.1 µM (inactive) in experiment [18].

Regarding `COc1cc2c(/C=C3/C(=O)Nc4cccc(Cl)c43)c(Cl)[nH]c2cc1C`, the GI50 in experiment [1] was 1.85 µM (inactive); in experiment [2] it was 1.8 µM (inactive); in experiment [3], 1.88 µM (inactive); in experiment [4], 1.44 µM (inactive); in [5], 2.67 µM (inactive); in [6], 2.23 µM (inactive). The GI50 was 1.7 µM (inactive) in [19]; 1.08 µM (active) in experiment [7]; 2.32 µM (inactive) in experiment [8]; 1.93 µM (inactive) in [9]; 1.21 µM (inactive) in experiment [10]; 3.73 µM (inactive) in experiment [12]. The GI50 in experiment [13] is 1.6 µM (inactive); in [14] it was 1.94 µM (inactive); in [15], 0.078 µM (active); in experiment [16], 2.21 µM (inactive); in experiment [17], 1.98 µM (inactive); in [18], 1.78 µM (inactive).

For the compound `O=C1Oc2cc3c(c4cccc1c24)OCN(c1ccc(Cl)cc1)C3`, the GI50 in experiment [1] was 14.3 µM (inactive); in [2] it was 0.176 µM (active); in experiment [4], > 100 µM (inactive); in experiment [5], 3.13 µM (inactive); in [6], 6.97 µM (inactive); in [19], > 44.5 µM (inactive). In addition, the GI50 in [8] was 15.2 µM (inactive); in experiment [9] it was 7.14 µM (inactive); in experiment [10], > 49.2 µM (inactive); in experiment [11], > 58.2 µM (inactive); in experiment [12], 3.03 µM (inactive); in experiment [13], 12 µM (inactive). Also, the GI50 was 11.4 µM (inactive) in [14], 28.1 µM (inactive) in [15], > 100 µM (inactive) in experiment [16] and 41.9 µM (inactive) in experiment [18].

Turning to `O=C1N[C@@H]2O[C@H](CNC(=O)c3cc(Br)c[nH]3)C[C@]2(O)N1.O=C1N[C@H]2O[C@H](CNC(=O)c3cc(Br)c[nH]3)C[C@@]2(O)N1`, the GI50 in experiment [1], in [3], in experiment [4], in experiment [5], in [6] and in [19] was > 100 µM (inactive) each time. For the same compound, the GI50 in experiment [7], in experiment [8], in experiment [9], in experiment [10], in experiment [11] and in experiment [12] was > 100 µM (inactive) throughout. Further, the GI50 in [13], in experiment [14], in [15], in experiment [16], in [17] and in experiment [18] was > 100 µM (inactive) throughout.
